{
  "source": "patent US20240336606A1",
  "about": "(Suzhou Zelgen Biopharmaceuticals Co., Ltd., priority 2020, published 2024)",
  "data": [
    {"target": "T1, binding of KRAS^G12C to SOS1 (Homo sapiens, UniProt Q07889)", "T1 construct": "Tag1 (unspecified)", "T1 sequence (Q07889 1-1333)": "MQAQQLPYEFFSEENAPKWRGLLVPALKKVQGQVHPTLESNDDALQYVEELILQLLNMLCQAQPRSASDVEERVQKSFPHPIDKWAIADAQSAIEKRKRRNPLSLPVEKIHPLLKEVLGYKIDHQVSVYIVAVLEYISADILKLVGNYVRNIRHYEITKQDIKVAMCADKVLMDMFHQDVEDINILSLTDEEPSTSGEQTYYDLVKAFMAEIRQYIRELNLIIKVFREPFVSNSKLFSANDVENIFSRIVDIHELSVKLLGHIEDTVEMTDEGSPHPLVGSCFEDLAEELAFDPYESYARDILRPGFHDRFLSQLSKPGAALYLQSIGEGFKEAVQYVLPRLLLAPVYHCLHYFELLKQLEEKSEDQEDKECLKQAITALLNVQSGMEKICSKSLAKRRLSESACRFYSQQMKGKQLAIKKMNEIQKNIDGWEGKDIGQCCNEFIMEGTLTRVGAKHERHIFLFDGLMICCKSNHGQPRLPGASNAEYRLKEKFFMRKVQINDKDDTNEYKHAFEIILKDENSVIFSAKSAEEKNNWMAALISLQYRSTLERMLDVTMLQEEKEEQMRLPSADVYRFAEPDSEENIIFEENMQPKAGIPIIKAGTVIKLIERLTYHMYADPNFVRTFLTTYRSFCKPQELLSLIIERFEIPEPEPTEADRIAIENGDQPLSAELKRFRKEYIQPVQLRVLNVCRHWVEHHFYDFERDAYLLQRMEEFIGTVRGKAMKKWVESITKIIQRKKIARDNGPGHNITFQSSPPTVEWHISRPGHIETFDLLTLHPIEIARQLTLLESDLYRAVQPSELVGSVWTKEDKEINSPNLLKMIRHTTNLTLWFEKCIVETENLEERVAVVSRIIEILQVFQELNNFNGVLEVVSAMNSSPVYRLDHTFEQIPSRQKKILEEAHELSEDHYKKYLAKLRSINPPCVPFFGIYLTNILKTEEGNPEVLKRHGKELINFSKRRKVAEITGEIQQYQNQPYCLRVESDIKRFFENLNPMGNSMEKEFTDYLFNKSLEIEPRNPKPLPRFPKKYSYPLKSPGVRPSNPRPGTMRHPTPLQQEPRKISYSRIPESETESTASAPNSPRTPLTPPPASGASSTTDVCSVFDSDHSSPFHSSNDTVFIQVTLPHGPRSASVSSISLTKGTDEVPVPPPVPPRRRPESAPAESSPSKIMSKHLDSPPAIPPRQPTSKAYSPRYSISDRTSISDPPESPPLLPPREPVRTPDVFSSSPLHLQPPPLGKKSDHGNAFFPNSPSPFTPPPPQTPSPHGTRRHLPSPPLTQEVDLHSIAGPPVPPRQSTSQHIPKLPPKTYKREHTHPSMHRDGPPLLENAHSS", "test": "Inhibition of the binding of KRAS^G12C to SOS1", "settings": "Tag1-SOS1 / Tag2-KRAS^G12C, 2 h incubation at room temperature; read-out: IC50 (nM), inhibitory activity on the binding of KRAS^G12C to SOS1", "description": "• (1) Gradient dilution of the test compounds: 10 mM mother solution (dissolved in 100% DMSO) was added to a 384-well test plate, the final content of DMSO being 0.25%.\n(2) 5 μL of Tag1-SOS1 solution was added to the test plate, and 5 μL of dilution buffer was added to the control group.\n(3) 5 μL of Tag2-KRAS^G12C solution was added to the test plate.\n(4) 10 μL of Anti-Tag1-Tb3+ and Anti-Tag2-XL665 detection solution were added to the test plate. The plate was centrifuged at 1000 rpm for 1 min and incubated at room temperature for 2 h.\n(6) The IC50 values for the compounds were finally calculated using GraphPad Prism software, and a curve was fit and plotted.\nThe inhibitory activity of the compounds of the examples of the present invention on the binding of KRAS^G12C enzyme to SOS1 is shown in Table 1.", "units": {"IC50": "nM"}, "values": [
      {"smiles": "COCCOc1cc2c(N[C@H](C)c3cc(N)cc(C(F)(F)F)c3)nc(C)nc2cc1OC", "note": "[Example 42, (R)—N-(1-(3-Amino-5-(trifluoromethyl)phenyl)ethyl)-7-methoxy-6-(2-methoxyethoxy)-2-me thylquinazolin-4-amine]", "IC50": 5.6},
      {"smiles": "COc1cc2nc(C)nc(N[C@H](C)c3cccc(C(F)(F)F)c3F)c2cc1OC[C@@H]1CCCN1C", "note": "[Example 18, N—((R)-1-(2-fluoro-3-(trifluoromethyl)phenyl)ethyl)-7-methoxy-2-methyl-6-(((S)-1-methylpyrrolin-2-yl)methoxy)quinazolin-4-amine]", "IC50": 36},
      {"smiles": "COc1cc2nc(C)nc(N[C@H](C)c3cccc(C(F)(F)C(C)(C)O)c3F)c2cc1OC[C@@H]1CN(S(C)(=O)=O)CCO1", "note": "[Example 29]", "IC50": 4.7},
      {"smiles": "COc1cc2nc(C)nc(N[C@H](C)c3cc(N)cc(C(F)(F)F)c3)c2cc1OC[C@@H](C)OC1COC1", "note": "[Example 68, N—((R)-1-(3-Amino-5-(trifluoromethyl)phenyl)ethyl)-7-methoxy-2-methyl-6-((R)-2-(oxetan-3-yloxy)propoxy)quinazolin-4-amine]", "IC50": 6.2},
      {"smiles": "COc1cc2nc(C)nc(N[C@H](C)c3cc(N)cc(C(F)(F)F)c3)c2cc1OC[C@@H]1CCCN1S(C)(=O)=O", "note": "[Example 32, N—((R)-1-(3-amino-5-(trifluoromethyl)phenyl)ethyl)-7-methoxy-2-methyl-6-(((S)-1-(methylsulfonyl)pyrrolidin-2-yl)methoxy)quinazolin-4-amine]", "IC50": 31},
      {"smiles": "COc1cc2nc(C)nc(N[C@H](C)c3cc(N)cc(C(F)(F)F)c3)c2cc1OCCN(C)CC1(F)CC1", "note": "[Example 21, (R)—N-(1-(3-amino-5-(trifluoromethyl)phenyl)ethyl)-6-(2-(((1-fluorocyclopropyl)methyl)(methyl)amino)ethoxy)-7-methoxy-2-methylquinazolin-4-amine]", "IC50": 4.7},
      {"smiles": "COc1cc2nc(C)nc(N[C@H](C)c3cc(N)cc(C(F)(F)F)n3)c2cc1OCCOC1(C)CCC1", "note": "[Example 73, (R)—N-(1-(4-Amino-6-(trifluoromethyl)pyridin-2-yl)ethyl)-7-methoxy-2-methyl-6-(2-(1-methylcyclobutyloxy)ethoxy)quinazolin-4-amine]", "IC50": 15},
      {"smiles": "[2H]C([2H])([2H])OCCOc1cc2c(N[C@H](C)c3cc(N)cc(C(F)(F)F)c3)nc(C)nc2cc1OC", "note": "[Example 57, (R)—N-(1-(3-Amino-5-(trifluoromethyl)phenyl)ethyl)-7-methoxy-6-(2-(methoxy-d3)ethoxy)-2-methylquinazolin-4-amine]", "IC50": 5.2},
      {"smiles": "COc1cc2nc(C)nc(N[C@H](C)c3cc(N)cc(C(F)(F)F)c3)c2cc1OCCN(C)C1CC1", "note": "[Example 8]", "IC50": 1.9},
      {"smiles": "COCCOc1cc2c(N[C@H](C)c3cccc(C(F)(F)C(C)(C)O)n3)nc(C)nc2cc1OC", "note": "[Example 76]", "IC50": 188},
      {"smiles": "COc1cc2nc(C)nc(N[C@H](C)c3cc(C(F)(F)F)cc(N)n3)c2cc1OCCOC1CC1", "note": "[Example 38, (R)—N-(1-(6-Amino-4-(trifluoromethyl)pyridin-2-yl)ethyl)-6-(2-cyclopropoxyethyloxy)-7-m ethoxy-2-methylquinazolin-4-amine]", "IC50": 33},
      {"smiles": "COc1cc2nc(C)nc(N[C@H](C)c3cccc(C(F)(F)C(C)(C)O)c3F)c2cc1OC[C@@H]1COCCO1", "note": "[Example 26, 1-(3-((R)-1-((6-(((S)-1,4-Dioxan-2-yl)methoxy)-7-methoxy-2-methylquinazolin-4-yl)amino)ethyl)-2-fluorophenyl)-1,1-difluoro-2-methylpropan-2-ol]", "IC50": 9.2},
      {"smiles": "COc1cc2nc(C)nc(N[C@H](C)c3cc(N)cc(C(F)(F)F)c3)c2cc1OCCN(C)S(C)(=O)=O", "note": "[Example 13]", "IC50": 2.5},
      {"smiles": "CNCC1(COc2cc3c(N[C@H](C)c4cccc(C(F)(F)F)c4F)nc(C)nc3cc2OC)CC1", "note": "[Example 54, (R)—N-(1-(2-Fluoro-3-(trifluoromethyl)phenyl)ethyl)-7-methoxy-2-methyl-6-((1-((methylamino)methyl)cyclopropyl)methoxy)quinazolin-4-amine]", "IC50": 15},
      {"smiles": "COc1cc2nc(C)nc(N[C@H](C)c3cccc(C(F)(F)C(C)(C)O)c3F)c2cc1OC[C@H]1COCCO1", "note": "[Example 27, 1-(3-((R)-1-((6-(((R)-1,4-Dioxan-2-yl)methoxy)-7-methoxy-2-methylquinazolin-4-yl)amino)ethyl)-2-fluorophenyl)-1,1-difluoro-2-methylpropan-2-ol]", "IC50": 8.5},
      {"smiles": "COc1cc2nc(C)nc(N[C@H](C)c3cccc(C(F)(F)F)c3F)c2cc1OC[C@@H]1CCCN1C(=O)OC(C)(C)C", "note": "[Example 16]", "IC50": 1090},
      {"smiles": "COc1cc2nc(C)nc(N[C@H](C)c3cccc(C(F)(F)C(C)(C)O)c3F)c2cc1OCCN(C)CC1CCC1", "note": "[Example 9]", "IC50": 3.4},
      {"smiles": "COCCOc1cc2c(N[C@H](C)c3cccc(S(N)(=O)=O)c3)nc(C)nc2cc1OC", "note": "[Example 84, (R)-3-(1-((7-Methoxy-6-(2-methoxyethoxy)-2-methylquinazolin-4-yl)amino)ethyl)benzenes ulfonamide]", "IC50": 18},
      {"smiles": "COc1cc2nc(C)nc(N[C@H](C)c3cccc(C(F)(F)C(C)(C)O)c3F)c2cc1OCC1(CN(C)C)CC1", "note": "[Example 12]", "IC50": 8.3},
      {"smiles": "COc1cc2nc(C)nc(N[C@H](C)c3cc(N)cc(C(F)(F)F)c3)c2cc1OCC1(C(C)OC)CC1", "note": "(single isomer, unassigned) [Example 65B]", "IC50": 7.3},
      {"smiles": "COc1cc2nc(C)nc(N[C@H](C)c3cc(N)cc(C(F)(F)F)c3)c2cc1OC[C@H]1CCCO1", "note": "[Example 40, N—((R)-1-(3-Amino-5-(trifluoromethyl)phenyl)ethyl)-7-methoxy-2-methyl-6-(((R)-tetrahydrofuran-2-yl)methoxy)quinazolin-4-amine]", "IC50": 8.2},
      {"smiles": "COc1cc2nc(C)nc(N[C@H](C)c3cc(N)cc(C(F)(F)F)c3)c2cc1OC[C@H](C)OC1COC1", "note": "[Example 69, N—((R)-1-(3-Amino-5-(trifluoromethyl)phenyl)ethyl)-7-methoxy-2-methyl-6-((S)-2-(oxetan-3-yloxy)propoxy)quinazolin-4-amine]", "IC50": 6.2},
      {"smiles": "COCCOCCOc1cc2c(N[C@H](C)c3cc(N)cc(C(F)(F)F)c3)nc(C)nc2cc1OC", "note": "[Example 50, (R)—N-(1-(3-Amino-5-(trifluoromethyl)phenyl)ethyl)-7-methoxy-6-(2-(2-methoxyethoxy)ethoxy)-2-methylquinazolin-4-amine]", "IC50": 4.2},
      {"smiles": "COCC1(COc2cc3c(N[C@H](C)c4cc(N)cc(C(F)(F)F)c4)nc(C)nc3cc2OC)CC1", "note": "[Example 56, (R)—N-(1-(3-Amino-5-(trifluoromethyl)phenyl)ethyl)-7-methoxy-6-((1-(methoxymethyl)cyclopropyl)methoxy)-2-methylquinazolin-4-amine]", "IC50": 9.6},
      {"smiles": "COc1cc2nc(C)nc(N[C@H](C)c3cc(N)cc(C(F)(F)F)c3)c2cc1OCC1(C(C)OC)CC1", "note": "(stereo partly drawn) [Example 65, N—((R)-1-(3-Amino-5-(trifluoromethyl)phenyl)ethyl)-7-methoxy-6-((1-(1-methoxyethyl)cyclopropyl)methoxy)-2-methylquinazolin-4-amine]", "IC50": 16},
      {"smiles": "COCCOc1cc2c(N[C@H](C)c3cc(C(F)(F)C(C)(C)O)ccn3)nc(C)nc2cc1OC", "note": "[Example 75]", "IC50": 40},
      {"smiles": "COCCOc1cc2c(N[C@H](C)c3cc(C(F)(F)F)cc(N)n3)nc(C)nc2cc1OC", "note": "[Example 51, (R)—N-(1-(6-Amino-4-(trifluoromethyl)pyridin-2-yl)ethyl)-7-methoxy-6-(2-methoxyethoxy)-2-methylquinazolin-4-amine]", "IC50": 24}
    ]}
  ]
}
